Measurements from US4545991A, “Difficidin and derivative antibacterials” (Merck & Co., Inc., priority 1983, dated 1985).
In brackets after ≈: the same amount, converted by molar mass.

Legend:
Veillonella alcalescens = assay: MIC, in vitro agar dilution assay, anaerobic bacteria (Table III); type: cell-based; settings: 10^6 CFU per spot
Propionibacterium acnes = assay: as above; type: cell-based; settings: 10^6 CFU per spot
S. aureus = assay: MIC, in vitro agar dilution assay, aerobic bacteria (Table II); type: cell-based; settings: 10^6 CFU per spot
From the text: (§1) Further evaluations of the antibacterial spectrum of difficidin and oxydifficidin were undertaken, especially as compared to the antibacterial spectrum of the valuable antibiotic cefoxitin, which is well known for its wide spectrum of antibacterial activity. An in vitro agar dilution assay was used, inoculum 10^6 CFU per spot. Table II below illustrates the results obtained for various aerobic bacteria, and Table III illustrates the results obtained for various anaerobic bacteria.

Strep. faecalis = assay: as above; type: cell-based; settings: 10^6 CFU per spot
From the text: as §1

E. coli = assay: as above; type: cell-based; settings: 10^6 CFU per spot
From the text: as §1

S. aureus Gm^R Meth^R = assay: as above; type: cell-based; settings: S. aureus Gm^R Meth^R; 10^6 CFU per spot
[1] = tested on: Bacteriodes fragilis Metr^r, Pen^r; assay: MIC, in vitro agar dilution assay, anaerobic bacteria (Table III); type: cell-based; settings: 10^6 CFU per spot
Vibrio percolans MB 1272 = assay: in vitro agar disc diffusion bioassay of column fractions (Table V); type: cell-based
Description: A 0.4 ml sample of 2.1 L spent ethyl acetate fraction from Step A above was evaporated to an oily residue and taken up in 0.7 ml of 7:3 methanol-0.01Mpotassium phosphate pH 7.0. A 0.4 ml aliquot of the solution was chromatographed in the same solvent at 28° C. on a Dupont Zorbax ODS column (4.6 mn ID×25 cm), 10 micron. The flow rate was 1 ml/min. and column effluent was monitored at 275 nm using a Laboratory Data Control Spectra Monitor I ultraviolet detector equipped with a 10 mm pathlength flow cell and a Honeywell Electronik 195 recorder. Eluate was collected in 0.5 ml fractions and assayed by agar disc diffusion against Vibrio percolans MB 1272. Table V summaries bioassay results.
The data in Table V show the presence of two distinct antibacterial substances in spent ethyl acetate. The activity in Fractions 11 and 12 is due to the antibacterial oxydifficidin. The activity in Fractions 61-65 is due to the antibacterial difficidin.

B. fragilis Pen^r = assay: MIC, in vitro agar dilution assay, anaerobic bacteria (Table III); type: cell-based; settings: 10^6 CFU per spot
Ser. marcescens = assay: MIC, in vitro agar dilution assay, aerobic bacteria (Table II); type: cell-based; settings: 10^6 CFU per spot
[2] = tested on: B. distasonis Pen^r Fox^r Clind^r; assay: MIC, in vitro agar dilution assay, anaerobic bacteria (Table III); type: cell-based; settings: 10^6 CFU per spot
Prot. mirabilis Gm^R = assay: MIC, in vitro agar dilution assay, aerobic bacteria (Table II); type: cell-based; settings: 10^6 CFU per spot
Prot. vulgaris = assay: as above; type: cell-based; settings: 10^6 CFU per spot
[3] = tested on: Peptostreptococcus anaerobius; assay: MIC, in vitro agar dilution assay, anaerobic bacteria (Table III); type: cell-based; settings: 10^6 CFU per spot
Serratia marcescens = assay: MIC, standard in vitro assay (Table I); type: cell-based; settings: for MIC Range: 10^6 CFU, 1 strain tested
From the text: (§2) Using standard in vitro assay techniques, minimal inhibitory concentrations (MIC) have been determined for difficidin and oxydifficidin against a number of bacteria.

Staphylococcus aureus = assay: MIC, standard in vitro assay (Table I); type: cell-based; settings: for MIC Range: 10^6 CFU, 3 strains tested
From the text: as §2

Streptococcus faecalis = assay: MIC, standard in vitro assay (Table I); type: cell-based; settings: 10^6 CFU; 1 strain tested
From the text: as §2

Salmonella typhimurium = assay: MIC, standard in vitro assay (Table I); type: cell-based; settings: for MIC Range: 10^6 CFU, 1 strain tested
From the text: as §2

Proteus = assay: MIC, standard in vitro assay (Table I); type: cell-based; settings: for MIC Range: 10^6 CFU, 3 strains tested
From the text: as §2

Klebsiella pneumoniae = assay: MIC, standard in vitro assay (Table I); type: cell-based; settings: 10^6 CFU; 2 strains tested
From the text: as §2

Enterobacter = assay: MIC, standard in vitro assay (Table I); type: cell-based; settings: 10^6 CFU; 3 strains tested
From the text: as §2

Escherichia coli = assay: MIC, standard in vitro assay (Table I); type: cell-based; settings: 10^6 CFU; 4 strains tested
From the text: as §2

Pseudomonas aeruginosa = assay: MIC, standard in vitro assay (Table I); type: cell-based; settings: for MIC Range: 10^6 CFU, 3 strains tested
From the text: as §2

[4] = tested on: B. distasonis Pen^r Fox^r; assay: MIC, in vitro agar dilution assay, anaerobic bacteria (Table III); type: cell-based; settings: 10^6 CFU per spot
anaerobic bacteria = assay: antibacterial activity against anaerobic bacteria, summary; type: cell-based; settings: wide spectrum of anaerobic bacteria
[5] = tested on: Clostridium perfringens NCCLS control strain; assay: microbe, parasite or virus in culture; type: cell-based; settings: Clostridium perfringens NCCLS control strain; 10^6 CFU per spot
[6] = tested on: Klebsiella pneumoniae MB 4005; assay: standard mouse protection test, experimental systemic infection; type: in vivo, CD1 female mice; settings: × 2 i.p. doses (immediately after infection and 6 hours later), 7 days
Description: The antibacterial efficacy of difficidin and its derivatives was further determined in standard mouse protection tests. An experimental systemic infection was produced in CD1 female mice (Charles River Breeding Laboratories, Wilmington, MA) by the intraperitoneal injection of a suitably diluted broth culture of Klebsiella pneumoniae MB 4005. The test antibacterial compounds and the control drug (streptomycin) were administered parenterally (intraperitoneally) immediately after infection and again 6 hours later. At least 4 fourfold dilutions of each agent were tested. There were 5 mice at each dose level. […] Under the conditions of the test, all infected untreated mice died within 48 hours.
Mice were protected by the administration of the test antibacterial compounds or streptomycin at the median effective doses shown in Table IV below.

[7] = tested on: B. thetaiotaomicron Clind^r, NCCLS control strain; assay: MIC, in vitro agar dilution assay, anaerobic bacteria (Table III); type: cell-based; settings: 10^6 CFU per spot
[8] = tested on: B. thetaiotaomicron Clind^r; assay: as above; type: cell-based; settings: 10^6 CFU per spot
E. coli DC 2 = assay: MIC, in vitro agar dilution assay, aerobic bacteria (Table II); type: cell-based; settings: E. coli DC 2; 10^6 CFU per spot
[9] = tested on: C. difficile Clind^r, Fox^r; assay: MIC, in vitro agar dilution assay, anaerobic bacteria (Table III); type: cell-based; settings: 10^6 CFU per spot
Ent. cloacae P99^+ = assay: MIC, in vitro agar dilution assay, aerobic bacteria (Table II); type: cell-based; settings: Ent. cloacae P99^+; 10^6 CFU per spot
Sal. typhimurium = assay: as above; type: cell-based; settings: 10^6 CFU per spot
Prot. morganii Sm^R = assay: as above; type: cell-based; settings: Prot. morganii Sm^R; 10^6 CFU per spot

C=CC=C(C)CCC1CC=CC=C(C)C(OP(=O)(O)O)CCCC=CC=CC=CCC(C)C(=C)CC(=O)O1 (stereo not drawn) [Difficidin, difficidin]
MIC (Veillonella alcalescens): 0.25 µg/mL (≈ 0.459 µM) | MIC (Propionibacterium acnes): 1 µg/mL (≈ 1.84 µM) | MIC (S. aureus; first unmarked strain): 16.0 µg/mL (≈ 29.4 µM) | MIC (S. aureus; second unmarked strain): 8.0 µg/mL (≈ 14.7 µM) | MIC (Strep. faecalis): > 128.0 µg/mL | MIC (E. coli): 8.0 µg/mL (≈ 14.7 µM) | MIC (S. aureus Gm^R Meth^R): 8.0 µg/mL (≈ 14.7 µM) | MIC [1]: 0.125 µg/mL (≈ 0.229 µM) | Zone Diameter (Vibrio percolans MB 1272; Fraction 61, 40 μl on 3/8" disc): 12 mm | Zone Diameter (Vibrio percolans MB 1272; Fraction 62, 40 μl on 3/8" disc): 12 mm | Zone Diameter (Vibrio percolans MB 1272; Fraction 63, 40 μl on 3/8" disc): 12 mm | Zone Diameter (Vibrio percolans MB 1272; Fraction 64, 40 μl on 3/8" disc): 12 mm | Zone Diameter (Vibrio percolans MB 1272; Fraction 65, 40 μl on 3/8" disc): 12 mm | MIC (B. fragilis Pen^r): 0.125 µg/mL (≈ 0.229 µM) | MIC (Ser. marcescens): 4.0 µg/mL (≈ 7.34 µM) | MIC [2]: 0.06 µg/mL (≈ 0.11 µM) | MIC (Prot. mirabilis Gm^R): 8.0 µg/mL (≈ 14.7 µM) | MIC (Prot. vulgaris): 0.5 µg/mL (≈ 0.918 µM) | MIC [3]: 0.06 µg/mL (≈ 0.11 µM) | MIC Range (Serratia marcescens): 4 µg/mL (≈ 7.34 µM) | effectiveness of difficidin relative to oxydifficidin (Serratia marcescens; Serratia marcescens, in most cases): four times more effective | MIC Range (Staphylococcus aureus): 8 to 16 µg/mL | effectiveness of difficidin relative to oxydifficidin (Staphylococcus aureus; S. aureus, in most cases): four times more effective | MIC Range (Streptococcus faecalis): 128 µg/mL (≈ 235 µM) | MIC Range (Salmonella typhimurium): 8 µg/mL (≈ 14.7 µM) | effectiveness of difficidin relative to oxydifficidin (Salmonella typhimurium; Salmonella typhimurium, in most cases): four times more effective | MIC Range (Proteus): 0.5 to 8 µg/mL | effectiveness of difficidin relative to oxydifficidin (Proteus; Proteus, in most cases): four times more effective | MIC Range (Klebsiella pneumoniae): 8 µg/mL (≈ 14.7 µM) | MIC Range (Enterobacter): 8 to 16 µg/mL | MIC Range (Escherichia coli): 8 µg/mL (≈ 14.7 µM) | MIC Range (Pseudomonas aeruginosa): 8 µg/mL (≈ 14.7 µM) | effectiveness of difficidin relative to oxydifficidin (Pseudomonas aeruginosa; Ps. aeruginosa, in most cases): four times more effective | MIC [4]: > 128 µg/mL | activity against anaerobic bacteria (anaerobic bacteria): active against a wide spectrum of anaerobic bacteria | MIC [5]: > 128 µg/mL | ED50 ([6]; Test No. 3): 1.56 mg/kg | MIC [7]: 0.06 µg/mL (≈ 0.11 µM) | MIC [8]: 0.25 µg/mL (≈ 0.459 µM) | MIC (E. coli DC 2): 8.0 µg/mL (≈ 14.7 µM) | MIC [9]: 0.125 µg/mL (≈ 0.229 µM) | MIC (Ent. cloacae P99^+): 16.0 µg/mL (≈ 29.4 µM) | MIC (Sal. typhimurium): 8.0 µg/mL (≈ 14.7 µM) | MIC (Prot. morganii Sm^R): 2.0 µg/mL (≈ 3.67 µM)

C=CC=C(C)CCC1CC=CC=C(C)C(OP(=O)(O)O)CCCC=CC=CC=CC(O)C(C)C(=C)CC(=O)O1 (stereo not drawn) [Oxydifficidin, oxydifficidin]
MIC (Veillonella alcalescens): 0.06 µg/mL (≈ 0.107 µM) | MIC (Propionibacterium acnes): 8 µg/mL (≈ 14.3 µM) | MIC (S. aureus; first unmarked strain): > 128.0 µg/mL | MIC (S. aureus; second unmarked strain): 32.0 µg/mL (≈ 57.1 µM) | MIC (Strep. faecalis): > 128.0 µg/mL | MIC (E. coli): 4.0 µg/mL (≈ 7.13 µM) | MIC (S. aureus Gm^R Meth^R): 32.0 µg/mL (≈ 57.1 µM) | MIC [1]: 0.25 µg/mL (≈ 0.446 µM) | Zone Diameter (Vibrio percolans MB 1272; Fraction 11, 40 μl on 3/8" disc): 23 mm | Zone Diameter (Vibrio percolans MB 1272; Fraction 12, 40 μl on 3/8" disc): 19 mm | MIC (B. fragilis Pen^r): 0.125 µg/mL (≈ 0.223 µM) | MIC (Ser. marcescens): 16.0 µg/mL (≈ 28.5 µM) | MIC [2]: 0.06 µg/mL (≈ 0.107 µM) | MIC (Prot. mirabilis Gm^R): 32.0 µg/mL (≈ 57.1 µM) | MIC (Prot. vulgaris): 8.0 µg/mL (≈ 14.3 µM) | MIC [3]: 0.06 µg/mL (≈ 0.107 µM) | MIC Range (Serratia marcescens): 16 µg/mL (≈ 28.5 µM) | MIC Range (Staphylococcus aureus): 32 to 128 µg/mL | MIC Range (Streptococcus faecalis): 128 µg/mL (≈ 228 µM) | MIC Range (Salmonella typhimurium): 32 µg/mL (≈ 57.1 µM) | MIC Range (Proteus): 2 to 32 µg/mL | MIC Range (Klebsiella pneumoniae): 8 µg/mL (≈ 14.3 µM) | MIC Range (Enterobacter): 32 to 64 µg/mL | MIC Range (Escherichia coli): 4 to 16 µg/mL | MIC Range (Pseudomonas aeruginosa): 16 to 32 µg/mL | MIC [4]: > 128 µg/mL | activity against anaerobic bacteria (anaerobic bacteria): active against a wide spectrum of anaerobic bacteria | MIC [5]: > 128 µg/mL | ED50 ([6]; Test No. 1): 12.25 mg/kg | ED50 ([6]; Test No. 2): 14.85 mg/kg | MIC [7]: 0.25 µg/mL (≈ 0.446 µM) | MIC [8]: 0.25 µg/mL (≈ 0.446 µM) | MIC (E. coli DC 2): 4.0 µg/mL (≈ 7.13 µM) | MIC [9]: 0.06 µg/mL (≈ 0.107 µM) | MIC (Ent. cloacae P99^+): 32.0 µg/mL (≈ 57.1 µM) | MIC (Sal. typhimurium): 32.0 µg/mL (≈ 57.1 µM) | MIC (Prot. morganii Sm^R): 2.0 µg/mL (≈ 3.57 µM)
